In patent publication US20250177392A1, “BROAD SPECTRUM INHIBITORS OF CYTOMEGALOVIRUS” (MICROBIOTIX, INC., priority 2022, published 2025):

Legend:
MCMV Smith = experiment: Herpes virus panel neutralization, MCMV; assay type: cell-based, Murine cytomegalovirus
Method: (§1) To determine the specificity of MBX-4992, additional neutralization experiments were conducted using a panel of herpes viruses performed in the presence of MBX-4992. […] Collectively, the antiviral activity of MBX-4992 is equivalent to that of GCV indicating specific inhibition of CMV replication.

HHV-8 BCBL-1 = experiment: Herpes virus panel neutralization, HHV-8; assay type: cell-based, Human herpes virus 8
Method: as §1

CYP3A4 = CYP3A4 (Homo sapiens, UniProt P08684); experiment: CYP3A4 inhibition at 10 μM; assay type: in vitro ADME; settings: % inhibition of CYP3A4 at 10 μM
AD169^R [1] = experiment: Virus pre-incubation / washout study; assay type: cell-based, Human cytomegalovirus; settings: virus pre-incubated, compound washed out; MBX-4992 10 μM, heparin 50 μg/ml
Method: (B) Based on the schematic, AD169^R (MOI 0.2) was pre-incubated with DMSO, MBX-4992, or heparin for one hour before being added to NHDF cells. Virus/compound mix was washed out after 30 minutes as indicated and either unchanged or replaced with media containing DMSO, MBX-4992, or heparin. Virus infection was quantified at 24 hpi GFP fluorescence. Percent infection was normalized to untreated cells.
NHDF cells (10^4) plated overnight in a 96-well plate were incubated at 4° C. for 30 minutes with AD169^R CMV virus pretreated with MBX-4992 (10 μM), Heparin (50 μg/mL) or DMSO for 1 hour at room temperature (in triplicate). For 2/3rd of the samples, media was aspirated and half of the wells received DMSO media, regardless of which drug the virus was exposed to, or MBX-4992 (10 μM), or Heparin (50 μg/mL) overnight. At 18 hpi, the cells were fixed with 4% paraformaldehyde, stained with a rabbit anti-IE1 antibody followed by an anti-rabbit Alexa 647, and analyzed using the Celigo cytometer. The DMSO condition that was not aspirated post binding was set as 100% infection.
To further characterize the mechanism of action, pre-incubation/washout studies were performed using AD169^R and MBX-4992. […] At 18 hpi, cells were immunostained with an anti-IE1 antibody as a readout for infection and quantified using a Celigo cytometer. […]

[2] = Cytotoxicity (CC50) against Hela cells for 3 d; assay type: cell-based; settings: human
[3] = Maximum solubility in water by nephlometry; assay type: physicochemical; settings: Maximum solubility in water determined by nephlometry
AD169 CMV virus = experiment: Time-of-addition assay; assay type: cell-based, Human cytomegalovirus; settings: 10 μM added -60 to 90 minutes post-infection, infection quantified at 24 hpi
Method: FIG. 5A-C are graphs showing that NAPA compounds target an early, post-attachment step of the CMV virus. (A) MBX-4992 (10 μM) was added along a time course post infection with AD169 (MOI 0.2) from −60 to 90 minutes after virus addition to NHDF fibroblasts. Infection at 24 hours was quantified after an immunostain with an anti-IE1 antibody. Percent infection was normalized to untreated cells where media was added either-60 or 90 minutes after virus addition. A schematic of the experimental design is shown.
NHDF cells (10^4) were plated in a 96-well plate overnight. A working stock of MBX-4992 at 20 μM was used as a 2×to achieve a final concentration of 10 μM. […] At […], the cells were fixed with 4% paraformaldehyde, stained with a rabbit anti-IE1 antibody followed by an anti-rabbit Alexa 647, and analyzed using the Celigo cytometer. Using the −60 DMSO treated cells as 100% infectivity, the percent relative to maximum infection was determined from cells treated with drug at different time points.
To further analyze the step of CMV entry targeted by NAPA compound MBX-4992, a time of addition assay was performed. MBX-4992 (10 μM) was added at various times during […] infection (−60, 0, 15, 30, 60, and 90 minutes post-infection (mpi)) with AD169 CMV virus and viral infection was quantified at 24 hpi. […]

AD169^R [4] = experiment: Generation of infectious virions (supernatant infectious dose); assay type: cell-based, Human cytomegalovirus; settings: MRC5 fibroblasts and ARPE-19 cells, MOI 0.5, 1-20 μM for 5 days
Method: FIGS. 13A and B are graphs showing that MBX-4992 limits the generation of infectious virions in fibroblasts and epithelial cells. MRC5 and ARPE-19 cells infected with AD169^R (MOI 0.5) were treated with DMSO, MBX-4992 (1, 5, 10, and 20 μM), and ganciclovir (5 μM) for 5 days, washed, and replaced with media for 3 days. The supernatant of MRC5 treated-cells (A) and ARPE-19-treated (B) cells was used to infect MRC5 cells. Virus infection was analyzed 24 hpi using GFP fluorescent signal as the readout with a Celigo cytometer. The viral infectious dose (IU/ml) was determined from each condition. The error bars are based on differences of infectious dose from 5 samples. Statistical tests were performed using ordinary one-way ANOVA with multiple comparisons to DMSO treated cells as a control and a Dunnett's post-test ****, p<0.0001.

HHV-6B Z29 = experiment: Herpes virus panel neutralization, HHV-6B; assay type: cell-based, Human herpes virus 6B
Method: as §1

[5] = Murine liver microsome stability; assay type: in vitro ADME; settings: % remaining after 30 min at 37° C. in the presence of NADPH
HCMV AD169 = experiment: Herpes virus panel neutralization, HCMV AD169; assay type: cell-based, Human cytomegalovirus
Method: as §1

HSV-2 G = experiment: Herpes virus panel neutralization, HSV-2; assay type: cell-based, Herpes simplex virus 2
Method: as §1

EBV Akata = experiment: Herpes virus panel neutralization, EBV; assay type: cell-based, Epstein-Barrvirus
Method: as §1

Chain of CYP3A4 (P08684 whole entry, species assumed): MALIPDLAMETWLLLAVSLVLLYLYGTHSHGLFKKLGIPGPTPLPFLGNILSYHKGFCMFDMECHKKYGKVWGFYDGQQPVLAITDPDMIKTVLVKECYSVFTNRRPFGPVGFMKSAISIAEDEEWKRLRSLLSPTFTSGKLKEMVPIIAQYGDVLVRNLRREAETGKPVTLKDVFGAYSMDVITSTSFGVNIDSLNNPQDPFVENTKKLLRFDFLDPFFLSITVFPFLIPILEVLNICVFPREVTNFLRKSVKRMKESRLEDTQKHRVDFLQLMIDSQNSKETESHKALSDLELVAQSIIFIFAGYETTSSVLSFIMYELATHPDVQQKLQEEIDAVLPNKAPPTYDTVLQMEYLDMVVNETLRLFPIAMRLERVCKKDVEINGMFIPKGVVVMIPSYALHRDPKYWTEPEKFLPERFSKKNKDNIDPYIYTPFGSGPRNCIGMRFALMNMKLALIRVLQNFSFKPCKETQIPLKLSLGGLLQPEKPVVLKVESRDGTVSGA

## Cc1nc(Nc2ccc(NC(=O)c3ccco3)cc2)cc(N2CCCC2)n1 [MBX-4992]
MCMV Smith; MCMV Smith
  SI: >33
MCMV Smith; Murid betaherpesvirus 1
  IC50: 4.5 µM
HHV-8 BCBL-1
  SI: >10
HHV-8 BCBL-1; Homo sapiens, BCBL1
  IC50: 10 µM
CYP3A4
  CYP: <10%
AD169^R [1]
  decrease of infection after washing out: ~25%
[2]
  CC50 at 3 d: > 100 µM
[3]
  Sol: high solubility
[3]; kinetic from dmso stock
  solubility kinetic: > 200 µM
AD169 CMV virus
  inhibition of infection by time of addition: most effective at preventing infection when introduced prior to and within 30 mpi
AD169^R [4]
  generation of infectious virions: significantly decreased generation of infectious AD169^R virions
HHV-6B Z29
  SI: >2
HHV-6B Z29; Human betaherpesvirus 6B
  IC50: 43.7 µM
[5]
  MLMS: 49%
HCMV AD169; HCMV AD169
  SI: >88
HCMV AD169; Human betaherpesvirus 5, AD169
  IC50: 1700 nM
HSV-2 G
  SI: 1
HSV-2 G; Human alphaherpesvirus 2
  IC50: > 150 µM
EBV Akata
  SI: >3
EBV Akata; human gammaherpesvirus 4
  IC50: 30.9 µM
